Data set [1] concerns glucosyltransferase. As to the kind of experiment: Glucosyltransferase inhibition activity (insoluble glucan, absorbance at 550 nm). The format is biochemical, S. mutans MT8148. The note with it: 0.15 ml of 2,000 ppm sample solution in 3 ml total volume; pH 6.0, 37° C., 3 hours; control water. The method, then:
As an enzyme solution, was used an extract which was obtained by culturing S. mutans MT8148 strain on Todd-Hewitt medium and then extracting hyphae with 8M urea in accordance with the method proposed by Hamada et al. [S. Hamada et al., J. Gen. Microbiol., 35, 335- 344 (1999 )].
A reaction system was prepared by adding 0.15 ml of an aqueous solution of a sample, said solution having been prepared to contain the sample at the concentration of 2,000 ppm, the enzyme solution prepared from the S. mutans strain and water to 0.6 ml of 500 mM sodium phosphate buffer which had pH 6.0 and contained 5% of sucrose, 0.5% of dextran T10 and 0.5% of sodium azide. The water was added in an amount to give a total volume of 3 ml. They were reacted in a glass test tube. In the above measurement, the amount of the enzyme was set such that the absorbance at 550 nm became about 1.0 when reacted at 37° C. for 3 hours.
Resultant insoluble glucan was subjected to ultrasonic disintegration and the; absorbance (A) at 550 nm was measured. Using as control (B) the absorbance obtained from the use of water in place of the sample solution, the inhibition rate (%) was determined in accordance with the following calculation formula: [formula] (Measurement results )
The glucosyltransferase inhibition activities of the extracts of the various fermented tea leaves, said extracts having been obtained in Examples 1, 2 and 3, and of caffeine and catechins, which are representative components of tea leaves, were measured using the above reaction system.

Data set [2] concerns glucosyltransferase. In words: Anti-glucan formation test. The format is biochemical, S. mutans MT8148. The note with it: 0.3 ml of 10% sample solution in 3 ml; pH 6.0, 37° C., 3 hours; relative to sugar. The method, then:
To a mixture consisting of 0.3 ml of a 10% sample solution, 0.3 ml of 1M sodium phosphate buffer-which had pH 6.0 and contained 1.0% of dextran T10 and 1.0% of sodium azide--and a glucosyltransferase enzyme solution, water was added in an amount to give a total volume of 3 ml so that a reaction system was prepared. They were reacted in a glass test tube.
Insoluble glucan thus formed was subjected to ultrasonic disintegration, and the absorbance (A) at 550 nm was measured.
As the glucosyltransferase enzyme solution, was used an extract which was obtained by culturing S. mutans MT8148 strain on Todd-Hewitt medium and then extracting hyphae with 8M urea in accordance with the method proposed by Hamada et al. [S. Hamada et al., J. Gen. Microbiol., 135, 335-344 (1989)].

A further data set has as its system S. mutans MT8148 strain. As to the kind of experiment: Anti-plaque test (in vitro plaque formation). The format is cell-based. The note with it: sample 5% in Dulbecco's modified Eagle's medium, 37° C., 1 day, anaerobic; Average ± S.D.; anticarious sugar of Example 10. On the procedure: The test was carried out in the following manner. Culture media were prepared by adding the test samples at the concentration of 5% to Dulbecco's modified Eagle's medium, respectively. 6-ml Portions of the media were added to glass test tubes, respectively, to which S. mutans MT8148 strain was planted. After the cells were cultured at 37° C. for 1 day under anaerobic conditions, the amounts of plaque adhered on the walls of the respective test tubes were weighed.

Data set [3] is described as follows: Solubility in distilled water. It is filed as physicochemical. The note with it: for solubility: distilled water, water. The source says:
Sugar: Refined sugar (prime grade)
Palatinose: Crystalline palatinose

Experimental findings from patent US5409692A, “Glucosyltransferase inhibitors, as well as dental caries prevention methods and anticarious foods using the same” (priority 1990, dated 1995) are described below.

Converted amounts (≈) assume the structure as drawn.

Regarding `O=C(O[C@@H]1Cc2c(O)cc(O)cc2O[C@@H]1c1ccc(O)c(O)c1)c1cc(O)c(O)c(O)c1` [Epicatechin gallate], the “Inhibition rate, %” value with glucosyltransferase [1] turned out to be 19%.

Regarding `OC[C@H]1O[C@H](OC[C@H]2OC(O)(CO)[C@@H](O)[C@@H]2O)[C@H](O)[C@@H](O)[C@@H]1O` (stereo partly shown) [Palatinose, palatinose], in the data set on glucosyltransferase [2], the “Relative amount of formed glucan, %” value was 2%. For the same compound, the “Amount of plaque formed” value in the data set with S. mutans MT8148 strain was 2.01 ± 0.22 mg. Also, the “Solubility (in words)” value in data set [3] was “low solubility especially at low temperatures”. Further, the solubility (commonly the dissolved amount per volume that the medium holds) in data set [3] (10° C.) was 210 mg/mL (≈ 614 mM); in data set [3] (30° C.) it was 320 mg/mL (≈ 935 mM); in data set [3] (50° C.), 440 mg/mL (≈ 1290 mM); in data set [3] (70° C.), 580 mg/mL (≈ 1690 mM).

As for `Oc1cc(O)c2c(c1)O[C@H](c1ccc(O)c(O)c1)[C@H](O)C2` [Epicatechin], in the data set with glucosyltransferase [1], the “Inhibition rate, %” value stood at 14%.

As to `Oc1cc(O)c2c(c1)O[C@H](c1cc(O)c(O)c(O)c1)[C@@H](O)C2` [Gallocatechin], in the data set on glucosyltransferase [1], the “Inhibition rate, %” value amounted to 15%.

Regarding `OC[C@H]1O[C@@](CO)(O[C@H]2O[C@H](CO)[C@@H](O)[C@H](O)[C@H]2O)[C@@H](O)[C@@H]1O` [Sugar], the solubility came out at 630 mg/mL (≈ 1840 mM) in data set [3] (10° C.), 680 mg/mL (≈ 1990 mM) in data set [3] (30° C.), 720 mg/mL (≈ 2100 mM) in data set [3] (50° C.) and 740 mg/mL (≈ 2160 mM) in data set [3] (70° C.).

With `Oc1cc(O)c2c(c1)O[C@H](c1cc(O)c(O)c(O)c1)[C@H](O)C2` [Epigallocatechin], the “Inhibition rate, %” value in the data set with glucosyltransferase [1] amounted to 11%.

Regarding `Oc1cc(O)c2c(c1)OC(c1ccc(O)c(O)c1)C(O)C2` (stereo not shown) [Catechin], the “Inhibition rate, %” value with glucosyltransferase [1] is 13%.
